In patent US7880007B2, “Bicyclic substituted phenyl piperidine modulators of muscarinic receptors” (Vertex Pharmaceuticals Incorporated, priority 2004, dated 2011):

What was measured:
Type in all cases: cell-based
M2 muscarinic receptor = target: T1, M2 muscarinic receptor (Homo sapiens, UniProt P08172); test: Functional mobilization of intracellular calcium (FLIPR), M2-CHO cells; settings: for Emax: 100% efficacy = maximum response obtained with the Carbachol control; for M2 Activity: M2-CHO cells, calcium mobilization (FLIPR)
T1 construct: expressed in transfected cells; host or cells: CHO (M2-CHO)
T1 sequence (P08172 1-466): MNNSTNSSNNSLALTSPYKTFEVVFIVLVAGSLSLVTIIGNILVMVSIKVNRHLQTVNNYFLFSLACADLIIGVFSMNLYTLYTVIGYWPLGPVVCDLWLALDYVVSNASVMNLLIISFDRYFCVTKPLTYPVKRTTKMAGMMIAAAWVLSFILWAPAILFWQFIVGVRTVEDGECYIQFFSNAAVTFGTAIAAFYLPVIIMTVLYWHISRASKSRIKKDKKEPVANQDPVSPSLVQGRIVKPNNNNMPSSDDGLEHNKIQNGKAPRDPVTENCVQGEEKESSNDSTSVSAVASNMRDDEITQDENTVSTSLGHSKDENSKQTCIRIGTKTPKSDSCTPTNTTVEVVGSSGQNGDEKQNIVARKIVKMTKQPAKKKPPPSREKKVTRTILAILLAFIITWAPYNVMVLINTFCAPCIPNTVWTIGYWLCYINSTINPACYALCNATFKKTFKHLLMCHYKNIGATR
Method in brief: (§1)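 FLIPR fluorescence (ex 488, em 540 nm) recorded 60 sec after compound addition to dye-loaded CHO cells. Agonist mode: compound alone. Antagonist mode: 15 min compound pre-incubation, then carbachol at EC80, or co-application. Efficacy expressed as % of maximal carbachol response.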

M3 muscarinic receptor = target: T2, M3 muscarinic receptor (Homo sapiens, UniProt P20309); test: Functional mobilization of intracellular calcium (FLIPR), M3-CHO cells; settings: for Emax: 100% efficacy = maximum response obtained with the Carbachol control; for M3 Activity: M3-CHO cells, calcium mobilization (FLIPR)
T2 construct: expressed in transfected cells; host or cells: CHO (M3-CHO)
T2 sequence (P20309 whole entry): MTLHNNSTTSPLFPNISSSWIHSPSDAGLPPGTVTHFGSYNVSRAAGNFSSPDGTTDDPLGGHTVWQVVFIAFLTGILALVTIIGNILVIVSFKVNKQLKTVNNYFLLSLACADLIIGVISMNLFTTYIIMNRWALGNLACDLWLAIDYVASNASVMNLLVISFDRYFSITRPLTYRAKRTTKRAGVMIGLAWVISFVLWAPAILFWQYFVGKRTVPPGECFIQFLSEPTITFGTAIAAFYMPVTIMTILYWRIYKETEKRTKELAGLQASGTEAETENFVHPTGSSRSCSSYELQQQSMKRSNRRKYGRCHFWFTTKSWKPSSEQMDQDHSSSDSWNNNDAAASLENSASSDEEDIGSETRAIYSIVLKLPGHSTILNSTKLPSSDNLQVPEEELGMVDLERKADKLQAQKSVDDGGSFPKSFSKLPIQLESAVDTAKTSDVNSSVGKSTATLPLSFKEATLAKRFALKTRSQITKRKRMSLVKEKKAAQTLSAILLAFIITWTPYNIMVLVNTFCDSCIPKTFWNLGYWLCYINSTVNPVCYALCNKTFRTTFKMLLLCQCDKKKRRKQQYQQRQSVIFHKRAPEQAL
Method in brief: as §1

M1 muscarinic receptor = target: T3, M1 muscarinic receptor (Homo sapiens, UniProt P11229); test: Functional mobilization of intracellular calcium (FLIPR), M1-CHO cells; settings: for Emax: 100% efficacy = maximum response obtained with the Carbachol control; for M1 Activity: M1-CHO cells, calcium mobilization (FLIPR)
T3 construct: expressed in transfected cells; host or cells: CHO (M1-CHO)
T3 sequence (P11229 1-460): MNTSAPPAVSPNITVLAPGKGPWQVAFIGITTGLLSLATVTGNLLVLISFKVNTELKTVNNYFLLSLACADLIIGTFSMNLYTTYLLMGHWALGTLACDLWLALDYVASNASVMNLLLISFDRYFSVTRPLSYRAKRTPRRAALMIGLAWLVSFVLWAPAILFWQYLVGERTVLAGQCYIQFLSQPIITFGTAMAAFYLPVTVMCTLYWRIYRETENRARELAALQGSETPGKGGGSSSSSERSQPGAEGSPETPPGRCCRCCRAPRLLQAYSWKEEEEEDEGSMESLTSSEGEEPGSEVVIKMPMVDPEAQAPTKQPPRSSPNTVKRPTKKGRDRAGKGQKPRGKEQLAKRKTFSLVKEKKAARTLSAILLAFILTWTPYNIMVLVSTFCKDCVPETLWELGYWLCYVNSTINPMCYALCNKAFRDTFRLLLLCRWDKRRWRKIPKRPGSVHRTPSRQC
Method in brief: as §1

M4 muscarinic receptor = target: T4, M4 muscarinic receptor (Homo sapiens, UniProt P08173); test: Functional mobilization of intracellular calcium (FLIPR), M4-CHO cells; settings: for Emax: 100% efficacy = maximum response obtained with the Carbachol control; for M4 Activity: M4-CHO cells, calcium mobilization (FLIPR)
T4 construct: expressed in transfected cells; host or cells: CHO (M4-CHO)
T4 sequence (P08173 1-479): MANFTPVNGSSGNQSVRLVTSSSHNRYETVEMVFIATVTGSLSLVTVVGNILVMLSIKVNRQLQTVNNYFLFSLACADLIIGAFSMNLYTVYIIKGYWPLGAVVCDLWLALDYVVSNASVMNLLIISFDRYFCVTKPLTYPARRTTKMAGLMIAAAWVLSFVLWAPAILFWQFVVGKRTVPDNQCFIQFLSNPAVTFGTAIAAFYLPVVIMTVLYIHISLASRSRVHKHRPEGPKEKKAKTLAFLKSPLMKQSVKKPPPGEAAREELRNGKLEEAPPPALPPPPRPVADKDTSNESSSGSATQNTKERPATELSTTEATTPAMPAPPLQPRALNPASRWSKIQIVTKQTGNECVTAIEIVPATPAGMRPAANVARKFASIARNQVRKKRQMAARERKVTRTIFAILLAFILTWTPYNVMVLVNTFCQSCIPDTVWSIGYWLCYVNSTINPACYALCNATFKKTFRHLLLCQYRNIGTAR
Method in brief: as §1

Compound | Emax (M2 muscarinic receptor) [%] | M2 Activity (M2 muscarinic receptor) | Emax (M3 muscarinic receptor) [%] | M3 Activity (M3 muscarinic receptor) | Emax (M1 muscarinic receptor) [%] | M1 Activity (M1 muscarinic receptor) | Emax (M4 muscarinic receptor) [%] | M4 Activity (M4 muscarinic receptor)
COc1ccccc1C1CCN(C2CCN(C(=O)c3ccccc3)CC2)CC1 [Compound 71] | < 25 | + (activity was measured to be greater than 5.0 μM) | < 25 | + (activity was measured to be greater than 5.0 μM) | < 25 | + (activity was measured to be greater than 5.0 μM) | < 25 | + (activity was measured to be greater than 5.0 μM)
Cc1ccc(F)cc1C1CCN(C2C[C@H]3CC[C@H]2C3)CC1 (stereo partly drawn) [Compound 73] | 25 to 100 | ++ (activity was measured to be from 1.0 μM to 5.0 μM) | < 25 | + (activity was measured to be greater than 5.0 μM) | 25 to 100 | ++ (activity was measured to be from 1.0 μM to 5.0 μM) | 25 to 100 | +++ (activity was measured to be less than 1.0 μM)
COc1ccc(Cl)cc1C1(F)CCN(C2C3CCCC2CCC3)CC1 (stereo not drawn) [Compound 74] | < 25 | + (activity was measured to be greater than 5.0 μM) | < 25 | + (activity was measured to be greater than 5.0 μM) | < 25 | + (activity was measured to be greater than 5.0 μM) | < 25 | + (activity was measured to be greater than 5.0 μM)
COc1cc(F)c(F)cc1C1CCN([C@@H]2C[C@H]3CC[C@H]2C3)CC1 [Compound 76] | < 25 | + (activity was measured to be greater than 5.0 μM) | < 25 | + (activity was measured to be greater than 5.0 μM) | < 25 | + (activity was measured to be greater than 5.0 μM) | 25 to 100 | ++ (activity was measured to be from 1.0 μM to 5.0 μM)
COc1ccc(-c2ccc3c(c2)OCO3)cc1C1CCN(C2CC3CCC(C3)C2)CC1 (stereo not drawn) [Compound 77] | < 25 | + (activity was measured to be greater than 5.0 μM) | < 25 | + (activity was measured to be greater than 5.0 μM) | < 25 | + (activity was measured to be greater than 5.0 μM) | 25 to 100 | + (activity was measured to be greater than 5.0 μM)
COc1ccc(F)cc1C1CCN([C@H]2C[C@H]3CC[C@H]2C3)CC1 [Compound 78] | < 25 | + (activity was measured to be greater than 5.0 μM) | < 25 | + (activity was measured to be greater than 5.0 μM) | 25 to 100 | ++ (activity was measured to be from 1.0 μM to 5.0 μM) | 25 to 100 | +++ (activity was measured to be less than 1.0 μM)
COc1ccccc1C1CCN(C2CC3CCC2C3)CC1 (stereo not drawn) [Compound 79] | < 25 | + (activity was measured to be greater than 5.0 μM) | < 25 | + (activity was measured to be greater than 5.0 μM) | 25 to 100 | + (activity was measured to be greater than 5.0 μM) | 25 to 100 | +++ (activity was measured to be less than 1.0 μM)
COc1ccc(-c2ccc(C#N)cc2)cc1C1CCN(C2CC3CCC(C3)C2)CC1 (stereo not drawn) [Compound 82] | < 25 | + (activity was measured to be greater than 5.0 μM) | < 25 | + (activity was measured to be greater than 5.0 μM) | 25 to 100 | + (activity was measured to be greater than 5.0 μM) | 25 to 100 | + (activity was measured to be greater than 5.0 μM)
COc1ccc(Cl)cc1C1(F)CCN(C2CCC3CCC2C3)CC1 (stereo not drawn) [Compound 83] | 25 to 100 | + (activity was measured to be greater than 5.0 μM) | < 25 | + (activity was measured to be greater than 5.0 μM) | 25 to 100 | + (activity was measured to be greater than 5.0 μM) | 25 to 100 | ++ (activity was measured to be from 1.0 μM to 5.0 μM)
CCNC(=O)c1ccc(-c2ccc(OC)c(C3CCN([C@H]4C[C@H]5CC[C@H]4C5)CC3)c2)cc1 [Compound 84] | < 25 | + (activity was measured to be greater than 5.0 μM) | < 25 | + (activity was measured to be greater than 5.0 μM) | < 25 | + (activity was measured to be greater than 5.0 μM) | < 25 | + (activity was measured to be greater than 5.0 μM)
COc1ccccc1C1CCN([C@@H]2C[C@H]3CC[C@H]2C3)CC1 [Compound 85] | < 25 | + (activity was measured to be greater than 5.0 μM) | < 25 | + (activity was measured to be greater than 5.0 μM) | 25 to 100 | + (activity was measured to be greater than 5.0 μM) | 25 to 100 | +++ (activity was measured to be less than 1.0 μM)
Cc1ccccc1C1CCN(C2CC3CCC(C3)C2)CC1 (stereo not drawn) [Compound 86] | < 25 | + (activity was measured to be greater than 5.0 μM) | < 25 | + (activity was measured to be greater than 5.0 μM) | 25 to 100 | ++ (activity was measured to be from 1.0 μM to 5.0 μM) | 25 to 100 | +++ (activity was measured to be less than 1.0 μM)
COCCNC(=O)c1ccc(-c2ccc(OC)c(C3CCN([C@H]4C[C@H]5CC[C@H]4C5)CC3)c2)cc1 [Compound 87] | < 25 | + (activity was measured to be greater than 5.0 μM) | < 25 | + (activity was measured to be greater than 5.0 μM) | < 25 | + (activity was measured to be greater than 5.0 μM) | < 25 | + (activity was measured to be greater than 5.0 μM)
Clc1ccccc1-c1ccccc1C1CCN([C@H]2C[C@H]3CC[C@H]2C3)CC1 [Compound 88] | < 25 | + (activity was measured to be greater than 5.0 μM) | < 25 | + (activity was measured to be greater than 5.0 μM) | < 25 | + (activity was measured to be greater than 5.0 μM) | 25 to 100 | ++ (activity was measured to be from 1.0 μM to 5.0 μM)
COc1ccccc1C1CCN(C2CCOCC2)CC1 [Compound 90] | < 25 | + (activity was measured to be greater than 5.0 μM) | < 25 | + (activity was measured to be greater than 5.0 μM) | 25 to 100 | + (activity was measured to be greater than 5.0 μM) | 25 to 100 | +++ (activity was measured to be less than 1.0 μM)
